# Laboratory results from the supplement of paper PMC10307832.
# How the values were obtained:
# Test in all cases: relative viability (nuclei count vs DMSO), 5 days (fraction); higher = more cells survive
# NCI-H2170 = tested on: NCI-H2170
# Outline: (§1)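 After 5 days of treatment, lung cancer cells in 1536-well plates were fixed and stained in a single step (final 0.05% Triton X-100, 1% formaldehyde, 1 ug/ml Hoechst) and their nuclei counted on 4× images. Treatment had been applied by pin tool the day after seeding as one drug alone or as a fixed anchor-drug dose with five library-drug doses (not always all listed) in √10 steps. Relative viability is the nuclei count of treated wells divided by that of vehicle wells, and values are medians of duplicate plates.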
# NCI-H647 = tested on: NCI-H647
# Outline: as §1
# HARA = tested on: HARA
# Outline: as §1
# NCI-H1395 = tested on: NCI-H1395
# Outline: as §1
# NCI-H1437 = tested on: NCI-H1437
# Outline: as §1
# NCI-H2405 = tested on: NCI-H2405
# Outline: as §1
# EKVX = tested on: EKVX
# Outline: as §1
# HCC-366 = tested on: HCC-366
# Outline: as §1
# NCI-H1792 = tested on: NCI-H1792
# Outline: as §1
# HCC-827 = tested on: HCC-827
# Outline: as §1
# NCI-H1355 = tested on: NCI-H1355
# Outline: as §1
# BEN = tested on: BEN
# Outline: as §1
# NCI-H1993 = tested on: NCI-H1993
# Outline: as §1
# NCI-H2087 = tested on: NCI-H2087
# Outline: as §1
# LOU-NH91 = tested on: LOU-NH91
# Outline: as §1
# NCI-H2342 = tested on: NCI-H2342
# Outline: as §1
# NCI-H522 = tested on: NCI-H522
# Outline: as §1
# NCI-H1734 = tested on: NCI-H1734
# Outline: as §1
smiles,measurement,setting,value
O=c1cc(N2CCOCC2)oc2c(-c3cccc4c3sc3ccccc34)cccc12 + NC(=O)Nc1cc(-c2cccc(F)c2)sc1C(=O)N[C@H]1CCCNC1 [AZD7762] (partner 0.2 µM),relative viability,NCI-H2170; first compound 0.01 µM,0.78
same,relative viability,NCI-H2170; first compound 0.03162 µM,0.945
same,relative viability,NCI-H2170; first compound 0.1 µM,0.734
same,relative viability,NCI-H2170; first compound 0.3162 µM,0.842
same,relative viability,NCI-H2170; first compound 1 µM,0.852
same,relative viability,NCI-H647; first compound 0.01 µM,0.371
same,relative viability,NCI-H647; first compound 0.03162 µM,0.486
same,relative viability,NCI-H647; first compound 0.1 µM,0.0676
same,relative viability,NCI-H647; first compound 0.3162 µM,0.515
same,relative viability,NCI-H647; first compound 1 µM,0.363
same,relative viability,HARA; first compound 0.01 µM,0.501
same,relative viability,HARA; first compound 0.03162 µM,0.303
same,relative viability,HARA; first compound 0.1 µM,0.302
same,relative viability,HARA; first compound 0.3162 µM,0.343
same,relative viability,HARA; first compound 1 µM,0.357
same,relative viability,NCI-H1395; first compound 0.03162 µM,0.403
same,relative viability,NCI-H1395; first compound 0.1 µM,0.357
same,relative viability,NCI-H1395; first compound 0.3162 µM,0.428
same,relative viability,NCI-H1395; first compound 1 µM,0.372
same,relative viability,NCI-H1437; first compound 0.01 µM,1.22
same,relative viability,NCI-H1437; first compound 0.03162 µM,1.12
same,relative viability,NCI-H1437; first compound 0.1 µM,1.12
same,relative viability,NCI-H1437; first compound 0.3162 µM,1.1
same,relative viability,NCI-H1437; first compound 1 µM,1.04
same,relative viability,NCI-H2405; first compound 0.01 µM,0.7
same,relative viability,NCI-H2405; first compound 0.03162 µM,0.727
same,relative viability,NCI-H2405; first compound 0.1 µM,0.552
same,relative viability,NCI-H2405; first compound 0.3162 µM,0.787
same,relative viability,NCI-H2405; first compound 1 µM,0.827
same,relative viability,EKVX; first compound 0.01 µM,0.654
same,relative viability,EKVX; first compound 0.03162 µM,0.757
same,relative viability,EKVX; first compound 0.1 µM,0.445
same,relative viability,EKVX; first compound 0.3162 µM,0.878
same,relative viability,EKVX; first compound 1 µM,0.695
same,relative viability,HCC-366; first compound 0.01 µM,0.247
same,relative viability,HCC-366; first compound 0.03162 µM,0.286
same,relative viability,HCC-366; first compound 0.1 µM,0.127
same,relative viability,HCC-366; first compound 0.3162 µM,0.287
same,relative viability,HCC-366; first compound 1 µM,0.288
same,relative viability,NCI-H1792; first compound 0.01 µM,0.75
same,relative viability,NCI-H1792; first compound 0.03162 µM,0.682
same,relative viability,NCI-H1792; first compound 0.3162 µM,0.673
same,relative viability,NCI-H1792; first compound 1 µM,0.733
same,relative viability,HCC-827; first compound 0.01 µM,0.26
same,relative viability,HCC-827; first compound 0.03162 µM,0.179
same,relative viability,HCC-827; first compound 0.1 µM,0.133
same,relative viability,HCC-827; first compound 0.3162 µM,0.184
same,relative viability,HCC-827; first compound 1 µM,0.261
same,relative viability,NCI-H1355; first compound 0.01 µM,0.726
same,relative viability,NCI-H1355; first compound 0.03162 µM,0.676
same,relative viability,NCI-H1355; first compound 0.1 µM,0.255
same,relative viability,NCI-H1355; first compound 0.3162 µM,0.903
same,relative viability,NCI-H1355; first compound 1 µM,0.72
same,relative viability,BEN; first compound 0.01 µM,0.576
same,relative viability,BEN; first compound 0.03162 µM,0.86
same,relative viability,BEN; first compound 0.1 µM,0.289
same,relative viability,BEN; first compound 0.3162 µM,0.735
same,relative viability,BEN; first compound 1 µM,0.626
same,relative viability,NCI-H1993; first compound 0.01 µM,0.832
same,relative viability,NCI-H1993; first compound 0.03162 µM,0.764
same,relative viability,NCI-H1993; first compound 0.1 µM,0.779
same,relative viability,NCI-H1993; first compound 0.3162 µM,0.692
same,relative viability,NCI-H1993; first compound 1 µM,0.715
same,relative viability,NCI-H2087; first compound 0.01 µM,1.37
same,relative viability,NCI-H2087; first compound 0.03162 µM,1.23
same,relative viability,NCI-H2087; first compound 0.1 µM,1.44
same,relative viability,NCI-H2087; first compound 0.3162 µM,1.31
same,relative viability,NCI-H2087; first compound 1 µM,1.36
same,relative viability,LOU-NH91; first compound 0.01 µM,0.755
same,relative viability,LOU-NH91; first compound 0.03162 µM,0.785
same,relative viability,LOU-NH91; first compound 0.1 µM,0.803
same,relative viability,LOU-NH91; first compound 0.3162 µM,0.78
same,relative viability,LOU-NH91; first compound 1 µM,0.751
same,relative viability,NCI-H2342; first compound 0.01 µM,0.566
same,relative viability,NCI-H2342; first compound 0.03162 µM,0.483
same,relative viability,NCI-H2342; first compound 0.1 µM,0.366
same,relative viability,NCI-H2342; first compound 0.3162 µM,0.45
same,relative viability,NCI-H2342; first compound 1 µM,0.433
same,relative viability,NCI-H522; first compound 0.01 µM,0.737
same,relative viability,NCI-H522; first compound 0.03162 µM,0.894
same,relative viability,NCI-H522; first compound 0.1 µM,0.504
same,relative viability,NCI-H522; first compound 0.3162 µM,0.967
same,relative viability,NCI-H522; first compound 1 µM,0.775
same,relative viability,NCI-H1734; first compound 0.01 µM,0.604
same,relative viability,NCI-H1734; first compound 0.03162 µM,0.568
same,relative viability,NCI-H1734; first compound 0.1 µM,0.112
same,relative viability,NCI-H1734; first compound 0.3162 µM,0.596
same,relative viability,NCI-H1734; first compound 1 µM,0.494
